Measurements: patent US9789181B2, “PAN-DR binding polypeptides and uses thereof” (Epimmune Inc., priority 2009, dated 2017)
Where no end group is shown, it is not given here.

Experiments:
purified HLA DRB1 *0101 = purified HLA DRB1 *0101 (Homo sapiens, UniProt P01903+P01911, A100R/D57E/F55L/F60I/F76Y/I96L/L162R/M171V/P40L/Q125E/R42F/V115G/Y59C); assay: IC50nM to purified HLA | DRB1 *0101
Protocol: (§1) Table printed on a drawing sheet, FIG. 1
(§2) Head of the field: IC50nM to purified HLA | DRB1 *0101
(§3) First copying reader's note: The comma is the decimal sign and the point a thousands separator (e.g. 21.831); some values are printed bold or italic and some SEQ ID NOs underlined, with no legend on the sheet.
(§4) Where the first naming reader finds the target: head: IC50nM to purified HLA | DRB1 *0101

purified HLA DRB1 *0301 = purified HLA DRB1 *0301 (Homo sapiens, UniProt P01903+P01911, A100K/A102G/A103R/A169T/F55Y/I96L/K41T/L162R/M171V/P40S/Q125H/Q178H/Q39Y/R42S/S66N/T106N/T262R/W38E/Y61H); assay: IC50nM to purified HLA | DRB1 *0301
Protocol: as §1
(§5) Head of the field: IC50nM to purified HLA | DRB1 *0301
as §3
(§6) Where the first naming reader finds the target: head: IC50nM to purified HLA | DRB1 *0301

purified HLA DRB1 *0401 = purified HLA DRB1 *0401 (Homo sapiens, UniProt P01903+P01911, A100K/A169T/F76Y/I96L/K127E/L162R/M171V/N62H/P40V/Q125Y/R42H/S133A/S149N/S66Y/V115G/V209L/W38E); assay: IC50nM to purified HLA | DRB1 *0401
Protocol: as §1
Head of the field: IC50nM to purified HLA | DRB1 *0401
as §3
Where the first naming reader finds the target: head: IC50nM to purified HLA | DRB1 *0401

purified HLA DRB1 *0404 = purified HLA DRB1 *0404 (Homo sapiens, UniProt P01903+P01911, A100R/A169T/F76Y/I96L/K127E/L162R/M171V/N62H/P40V/Q125Y/R42H/S133A/S149N/S66Y/V209L/W38E); assay: IC50nM to purified HLA | DRB1 *0404
Protocol: as §1
(§7) Head of the field: IC50nM to purified HLA | DRB1 *0404
as §3
(§8) Where the first naming reader finds the target: head: IC50nM to purified HLA | DRB1 *0404

purified HLA DRB1 *0701 = purified HLA DRB1 *0701 (Homo sapiens, UniProt P01903+P01911, A100R/A102G/A103Q/D57E/D86V/E43K/F76Y/K127E/L162R/M171V/P40G/Q125H/Q99D/R33Q/R42Y/R54Q/S133A/S66F/T210M/V115G/Y107V/Y59L/Y89S); assay: IC50nM to purified HLA | DRB1 *0701
Protocol: as §1
Head of the field: IC50nM to purified HLA | DRB1 *0701
as §3
Where the first naming reader finds the target: head: IC50nM to purified HLA | DRB1 *0701

purified HLA DRB1 *0802 = purified HLA DRB1 *0802 (Homo sapiens, UniProt P01903+P01911, A100R/A103L/A169T/F76Y/H45Y/I96F/K41T/L162R/M171V/P40S/Q125H/Q178H/Q39Y/Q99D/R218S/R42G/S66Y/V115G/W38E); assay: IC50nM to purified HLA | DRB1 *0802
Protocol: as §1
(§9) Head of the field: IC50nM to purified HLA | DRB1 *0802
as §3
(§10) Where the first naming reader finds the target: head: IC50nM to purified HLA | DRB1 *0802

purified HLA DRB1 *1302 = purified HLA DRB1 *1302 (Homo sapiens, UniProt P01903+P01911, A100E/A169T/K41T/L162R/M171V/P40S/Q125H/Q178H/Q39Y/Q99D/R42S/S66N/T262R/V115G/W38E/Y61H); assay: IC50nM to purified HLA | DRB1 *1302
Protocol: as §1
Head of the field: IC50nM to purified HLA | DRB1 *1302
as §3
Where the first naming reader finds the target: head: IC50nM to purified HLA | DRB1 *1302

purified HLA DRB1 *1501 = purified HLA DRB1 *1501 (Homo sapiens, UniProt P01903+P01911); assay: IC50nM to purified HLA | DRB1 *1501
Protocol: as §1
(§11) Head of the field: IC50nM to purified HLA | DRB1 *1501
as §3
(§12) Where the first naming reader finds the target: head: IC50nM to purified HLA | DRB1 *1501

purified HLA DRB4 *0101 = purified HLA DRB4 *0101 (Homo sapiens, UniProt P01903+P13762, G164S); assay: IC50nM to purified HLA | DRB4 *0101
Protocol: as §1
Head of the field: IC50nM to purified HLA | DRB4 *0101
as §3
Where the first naming reader finds the target: head: IC50nM to purified HLA | DRB4 *0101

purified HLA DRB5 *0101 = purified HLA DRB5 *0101 (Homo sapiens, UniProt P01903+Q30154); assay: IC50nM to purified HLA | DRB5 *0101
Protocol: as §1
(§13) Head of the field: IC50nM to purified HLA | DRB5 *0101
as §3
(§14) Where the first naming reader finds the target: head: IC50nM to purified HLA | DRB5 *0101

HLA DRB1 *0101 = HLA DRB1 *0101 (Homo sapiens, UniProt P01903+P01911, A100R/D57E/F55L/F60I/F76Y/I96L/L162R/M171V/P40L/Q125E/R42F/V115G/Y59C); assay: IC50nM to purified HLA | DRB1 *0101
Protocol: (§15) Table printed on a drawing sheet, FIG. 1 (contd.)
as §2
(§16) First copying reader's note: Continued from the preceding sheet of FIG. 1; decimal commas are used, the analog names give the substituted residues and positions in PADRE, and some values are printed in italics or bold and some SEQ ID NOs bold and underlined without a legend on this sheet.
as §4

HLA DRB1 *0301 = HLA DRB1 *0301 (Homo sapiens, UniProt P01903+P01911, A100K/A102G/A103R/A169T/F55Y/I96L/K41T/L162R/M171V/P40S/Q125H/Q178H/Q39Y/R42S/S66N/T106N/T262R/W38E/Y61H); assay: IC50nM to purified HLA | DRB1 *0301
Protocol: as §15, §5, §16, §6

HLA DRB1 *0404 = HLA DRB1 *0404 (Homo sapiens, UniProt P01903+P01911, A100R/A169T/F76Y/I96L/K127E/L162R/M171V/N62H/P40V/Q125Y/R42H/S133A/S149N/S66Y/V209L/W38E); assay: IC50nM to purified HLA | DRB1 *0404
Protocol: as §15, §7, §16, §8

HLA DRB1 *0802 = HLA DRB1 *0802 (Homo sapiens, UniProt P01903+P01911, A100R/A103L/A169T/F76Y/H45Y/I96F/K41T/L162R/M171V/P40S/Q125H/Q178H/Q39Y/Q99D/R218S/R42G/S66Y/V115G/W38E); assay: IC50nM to purified HLA | DRB1 *0802
Protocol: as §15, §9, §16, §10

HLA DRB1 *1101 = HLA DRB1 *1101 (Homo sapiens, UniProt P01903+P01911, A100R/A169T/A87E/I96F/K41T/L162R/M171V/P40S/Q125H/Q178H/Q39Y/Q99D/R42S/S66Y/T262R/V115G/W38E); assay: IC50nM to purified HLA | DRB1 *1101
Protocol: as §15
Head of the field: IC50nM to purified HLA | DRB1 *1101
as §16
Where the first naming reader finds the target: head: IC50nM to purified HLA | DRB1 *1101

HLA DRB1 *1501 = HLA DRB1 *1501 (Homo sapiens, UniProt P01903+P01911); assay: IC50nM to purified HLA | DRB1 *1501
Protocol: as §15, §11, §16, §12

HLA DRB1 *0405 = HLA DRB1 *0405 (Homo sapiens, UniProt P01903+P01911, A100R/A169T/D86S/F76Y/I96L/K127E/L162R/M171V/N62H/P40V/Q125Y/R42H/S133A/S149N/S66Y/V115G/V209L/W38E); assay: IC50nM to purified HLA | DRB1 *0405
Protocol: as §15
Head of the field: IC50nM to purified HLA | DRB1 *0405
as §16
Where the first naming reader finds the target: head: IC50nM to purified HLA | DRB1 *0405

HLA DRB5 *0101 = HLA DRB5 *0101 (Homo sapiens, UniProt P01903+Q30154); assay: IC50nM to purified HLA | DRB5 *0101
Protocol: as §15, §13, §16, §14

Chain of purified HLA DRB1 *0301 (P01903 26-254 limits assumed, other chains not shown): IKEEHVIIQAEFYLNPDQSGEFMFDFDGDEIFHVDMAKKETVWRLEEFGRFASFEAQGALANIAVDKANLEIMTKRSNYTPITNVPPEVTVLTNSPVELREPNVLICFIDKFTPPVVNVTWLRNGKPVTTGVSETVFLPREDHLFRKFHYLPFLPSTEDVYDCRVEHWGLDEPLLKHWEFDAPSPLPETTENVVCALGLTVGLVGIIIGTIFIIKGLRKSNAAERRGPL
Chain of purified HLA DRB4 *0101 (P01903 26-254 limits assumed): as the sequence (P01903 26-254 limits assumed, other chains not shown) above
Chain of purified HLA DRB4 *0101 (P13762 whole entry G164S): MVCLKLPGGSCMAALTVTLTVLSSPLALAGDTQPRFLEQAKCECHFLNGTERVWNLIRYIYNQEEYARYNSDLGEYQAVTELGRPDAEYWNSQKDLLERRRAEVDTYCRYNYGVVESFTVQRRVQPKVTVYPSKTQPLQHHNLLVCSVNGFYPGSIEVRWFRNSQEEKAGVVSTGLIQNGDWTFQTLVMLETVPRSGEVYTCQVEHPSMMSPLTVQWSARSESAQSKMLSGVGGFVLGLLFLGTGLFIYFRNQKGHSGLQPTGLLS
Chain of HLA DRB1 *0301 (P01903 26-254 limits assumed, other chains not shown): as the sequence (P01903 26-254 limits assumed, other chains not shown) above
Chain of purified HLA DRB1 *1302 (P01903 26-254 limits assumed, other chains not shown): as above
Chain of HLA DRB1 *1101 (P01903 26-254 limits assumed, other chains not shown): as above

| IC50 (purified HLA DRB1 *0101) | IC50 (purified HLA DRB1 *0301) | IC50 (purified HLA DRB1 *0401) | IC50 (purified HLA DRB1 *0404) | IC50 (purified HLA DRB1 *0701) | IC50 (purified HLA DRB1 *0802) | IC50 (purified HLA DRB1 *1302) | IC50 (purified HLA DRB1 *1501) | IC50 (purified HLA DRB4 *0101) | IC50 (purified HLA DRB5 *0101) | IC50 (HLA DRB1 *0101) | IC50 (HLA DRB1 *0301) | IC50 (HLA DRB1 *0404) | IC50 (HLA DRB1 *0802) | IC50 (HLA DRB1 *1101) | IC50 (HLA DRB1 *1501) | IC50 (HLA DRB1 *0405) | IC50 (HLA DRB5 *0101) | Sequence |
| --- | --- | --- | --- | --- | --- | --- | --- | --- | --- | --- | --- | --- | --- | --- | --- | --- | --- | --- |
| 3.8 nM | 214 nM | 3.4 nM | 5.7 nM | 94 nM | 11 nM | 1320 nM | 4.2 nM | 526 nM | 30 nM |  |  |  |  |  |  |  |  | AAAHFVAAYTLHAAA [SEQ ID NO: 27] |
|  |  |  |  |  |  |  |  |  |  | 4.4 nM | 372 nM | 5.9 nM | 8.5 nM | 14 nM | 12 nM | 18 nM | 8.7 nM | AAANFVAAWTLKAAA [SEQ ID NO: 50] |
| 5.3 nM | 139 nM | 3.1 nM |  | 69 nM |  |  | 38 nM | 115 nM | 30 nM |  |  |  |  |  |  |  |  | AAAWFVAAFTLHAAA [SEQ ID NO: 9] |
